Laboratory results published in US12240862B2, “Inhibitors of peptidylarginine deiminases” (Gilead Sciences, Inc., priority 2020, dated 2025).

Biological target: T1, human PAD4 (Homo sapiens, UniProt Q9UM07)
T1 construct: human PAD4 (NM_012387), A2P663, was PCR amplified; His-SUMO (N, cleaved yes); made in house; host or cells: E. coli BL21(DE3)
Assay: In vitro PAD4 BAEE biochemical assay
Conditions: human PAD4, BAEE substrate; 5 nM PAD4, 2 mM calcium chloride, 3 mM BAEE; geometric mean of multiple experiments
Outline: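 Ammonia release from BAEE deimination monitored by o-phthalaldehyde amine coupling (1 h, 25 °C) after EDTA stop. Final conditions: 5 nM tag-free recombinant human PAD4 (E. coli), 2 mM CaCl2, 3 mM BAEE, pH 7.6 MOPS with DTT; 30 min compound preincubation, then 2 h reaction at 25 °C.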

T1 sequence (Q9UM07 2-663): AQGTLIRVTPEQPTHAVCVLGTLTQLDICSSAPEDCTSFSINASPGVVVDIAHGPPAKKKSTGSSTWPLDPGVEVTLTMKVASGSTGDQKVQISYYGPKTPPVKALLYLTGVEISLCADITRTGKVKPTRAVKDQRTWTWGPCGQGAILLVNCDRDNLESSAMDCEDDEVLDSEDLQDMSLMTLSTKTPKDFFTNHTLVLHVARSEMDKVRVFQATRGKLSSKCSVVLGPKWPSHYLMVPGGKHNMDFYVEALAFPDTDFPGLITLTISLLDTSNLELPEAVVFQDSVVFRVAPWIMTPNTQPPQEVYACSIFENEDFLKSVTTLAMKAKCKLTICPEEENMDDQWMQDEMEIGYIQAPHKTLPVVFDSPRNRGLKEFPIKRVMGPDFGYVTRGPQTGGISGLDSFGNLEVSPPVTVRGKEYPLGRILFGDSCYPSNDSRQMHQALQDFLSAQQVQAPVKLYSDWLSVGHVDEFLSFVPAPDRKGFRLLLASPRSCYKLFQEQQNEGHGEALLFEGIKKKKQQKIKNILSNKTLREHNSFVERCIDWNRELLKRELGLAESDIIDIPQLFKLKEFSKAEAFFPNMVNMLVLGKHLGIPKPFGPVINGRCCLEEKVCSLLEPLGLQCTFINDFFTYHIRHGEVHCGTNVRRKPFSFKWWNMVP

Row | IC50 [nM] | Structure (SMILES)
1 | 11000 | COc1cc(C(=O)N2C[C@@H]3CC[C@H]2CN3)cc2nc(-c3cc4ccc([C@@H](C)NC(=O)C56CC(F)(C5)C6)nc4n3CC3CC3)c(C)n12 [Example 3, ~{N}-[(1~{R})-1-[1-(cyclopropylmethyl)-2-[7-[(1~{S},4~{S})-2,5-diazabicyclo[2.2.2]octane-2-carbonyl]-5-methoxy-3-methylimidazo[1,2-a]pyridin-2-yl]pyrrolo [2,3-b]pyridin-6-yl]ethyl]-3-fluorobicyclo [1.1.1] pentane-1-carboxamide]
2 | 180 | COc1cc(C(=O)N2[C@H]3CC[C@@H]2[C@H](N)C3)cc2nc(-c3cc4ccc([C@@H](C)Nc5ccc(F)cn5)nc4n3CC3CC3)c(C)n12 [Example 259, ((1R,2R,4S)-2-amino-7-azabicyclo[2.2.1]heptan-7-yl)(2-(1-(cyclopropylmethyl)-6-((R)-1-((5-fluoropyridin-2-yl)amino)ethyl)-1H-pyrrolo[2,3-b]pyridin-2-yl)-5-methoxy-3-methylimidazo[1,2-a]pyridin-7-yl)methanone]
3 | 48.3 | COc1cc(C(=O)N2[C@H]3CC[C@@H]2[C@H](N)C3)cc2nc(-c3cc4ccc([C@@H](C)NC(=O)N5CC[C@H](F)C5)nc4n3CC3CC3)c(C3CC3)n12 [Example 216, (3~{S})-~{N}-[(1~{R})-1-[2-[7-[(1~{R},2~{R}, 4~{S})-2-amino-7-azabicyclo[2.2.1]heptane-7-carbonyl]-3-cyclopropyl-5-methoxyimidazo [1,2-a]pyridin-2-yl]-1-(cyclopropylmethyl)pyrrolo [2,3-b]pyridin-6-yl]ethyl]-3-fluoropyrrolidine-1-carboxamide]
4 | 35.8 | COc1cc(C(=O)N2[C@H]3CC[C@@H]2[C@H](N)C3)cc2nc(-c3cc4ccc([C@@H](C)NC(=O)C5(CO)CC5)nc4n3CC3CC3)c(C)n12 [Example 128, ~{N}-[(1~{R})-1-[2-[7-[(1~{R},2~{R},4~{S})-2-amino-7-azabicyclo[2.2.1]heptane-7-carbonyl]-5-methoxy-3-methylimidazo [1,2-a]pyridin-2-yl]-1-(cyclopropylmethyl)pyrrolo [2,3-b]pyridin-6-yl]ethyl]-1-(hydroxymethyl) cyclopropane-1-carboxamide]
5 | 139 | COc1cc(C(=O)N2[C@H]3CC[C@@H]2[C@H](N)C3)cc2nc(-c3cc4ccc([C@@H](C)N(C)C(=O)c5ccccc5)nc4n3CC3CC3)c(C)n12 [Example 185, ~{N}-[(1~{R})-1-[2-[7-[(1~{R},2~{R},4~{S})-2-amino-7-azabicyclo[2.2.1]heptane-7-carbonyl]-5-methoxy-3-methylimidazo [1,2-a]pyridin-2-yl]-1-(cyclopropylmethyl)pyrrolo [2,3-b]pyridin-6-yl]ethyl]-~{N}-methylbenzamide]
6 | 187 | COc1cc(C(=O)N2CCC[C@@H](N)C2)cc2nc(-c3cc4ccc([C@@H](C)NC(=O)c5ccccc5)nc4n3CC3CC3)c(C3CC3)n12 [Example 141, ~{N}-[(1~{R})-1-[2-[7-[(3~{R})-3-aminopiperidine-1-carbonyl]-3-cyclopropyl-5-methoxyimidazo [1,2-a]pyridin-2-yl]-1-(cyclopropylmethyl)pyrrolo [2,3-b]pyridin-6-yl]ethyl] benzamide]
7 | 55.9 | COc1cc(C(=O)N2[C@H]3CC[C@@H]2[C@H](N)C3)cc2nc(-c3cc4ccc([C@@H](C)NC(=O)N5CC[C@H](F)C5)nc4n3CC3CC3)c(C)n12 [Example 248, (3~{S})-~{N}-[(1~{R})-1-[2-[7-[(1~{R},2~{R},4~{S})-2-amino-7-azabicyclo[2.2.1]heptane-7-carbonyl]-5-methoxy-3-methylimidazo [1,2-a]pyridin-2-yl]-1-(cyclopropylmethyl)pyrrolo [2,3-b]pyridin-6-yl]ethyl]-3-fluoropyrrolidine-1-carboxamide]
8 | 5250 | COc1cc(C(=O)N2[C@@H]3CC[C@H]2[C@@H](N)[C@@H](O)C3)cc2nc(-c3cc4ccc(N(C(F)F)S(C)(=O)=O)nc4n3CC3CC3)c(C)n12 [Example 414, ~{N}-[2-[7-[(1~{S}, 2~{R},3~{S},5~{R})-2-amino-3-hydroxy-8-azabicyclo[3.2.1]octane-8-carbonyl]-5-methoxy-3-methylimidazo [1,2-a]pyridin-2-yl]-1-(cyclopropylmethyl)pyrrolo [2,3-b]pyridin-6-yl]-~{N}-(difluoromethyl) methanesulfonamide]
9 | 2490 | CCOC(=O)C1CC1c1c(-c2cc3ccc(N(C(F)F)S(C)(=O)=O)nc3n2CC2CC2)nc2cc(C(=O)N3CCC[C@@H](N)C3)ccn12 (stereo partly shown) [Example 432, ethyl 2-[7-[(3~{R})-3-aminopiperidine-1-carbonyl]-2-[1-(cyclopropylmethyl)-6-[difluoromethyl (methylsulfonyl)amino]pyrrolo[2,3-b]pyridin-2-yl]imidazo[1,2-a]pyridin-3-yl]cyclopropane-1-carboxylate]
10 | 27200 | COc1cc(C(=O)NC[C@H]2CCCCN2)cc2nc(-c3cc4ccc(N(C(F)F)S(C)(=O)=O)nc4n3CC3CC3)c(C)n12 [Example 295, 2-[1-(cyclopropylmethyl)-6-[difluoromethyl (methylsulfonyl)amino]pyrrolo[2,3-b]pyridin-2-yl]-5-methoxy-3-methyl-~{N}-[[(2~{R})-piperidin-2-yl]methyl] imidazo[1,2-a]pyridine-7-carboxamide]
11 | 13400 | COc1cc(C(=O)N2C[C@H]3CNCC[C@H]32)cc2nc(-c3cc4ccc(N(C(F)F)S(C)(=O)=O)nc4n3CC3CC3)c(C)n12 [Example 284, ~{N}-[1-(cyclopropylmethyl)-2-[7-[(1~{R},6~{R})-3,7-diazabicyclo[4.2.0]octane-7-carbonyl]-5-methoxy-3-methylimidazo[1,2-a]pyridin-2-yl]pyrrolo[2,3-b]pyridin-6-yl]-~{N}-(difluoromethyl) methanesulfonamide]
12 | 52.3 | COc1cc(C(=O)N2[C@H]3CC[C@@H]2[C@H](N)C3)cc2nc(-c3cc4ccc(N5CCOCS5(=O)=O)nc4n3CC3CC3)c(C)n12 [Example 458, [(1~{R},2~{R},4~{S})-2-amino-7-azabicyclo [2.2.1]heptan-7-yl]-[2-[1-(cyclopropylmethyl)-6-(3,3-dioxo-1,3,4-oxathiazinan-4-yl)pyrrolo [2,3-b]pyridin-2-yl]-5-methoxy-3-methylimidazo[1,2-a]pyridin-7-yl]methanone]
13 | 12100 | COc1cc(C(=O)N2C[C@@H]3CCCN[C@@H]3C2)cc2nc(-c3cc4ccc(N(C(F)F)S(C)(=O)=O)nc4n3CC3CC3)c(C)n12 [Example 337, ~{N}-[2-[7-[(4~{a}~{S}, 7~{a}~{S})-1,2,3,4,4~{a},5,7,7~{a}-octahydropyrrolo[3,4-b]pyridine-6-carbonyl]-5-methoxy-3-methylimidazo[1,2-a]pyridin-2-yl]-1-(cyclopropylmethyl)pyrrolo [2,3-b]pyridin-6-yl]-~{N}-(difluoromethyl) methanesulfonamide]
14 | 21500 | COc1cc(C(=O)NC2C3CCCNC32)cc2nc(-c3cc4ccc(N(C(F)F)S(C)(=O)=O)nc4n3CC3CC3)c(C)n12 (stereo not shown) [Example 339, ~{N}-(2-azabicyclo[4.1.0]heptan-7-yl)-2-[1-(cyclopropylmethyl)-6-[difluoromethyl (methylsulfonyl)amino]pyrrolo[2,3-b]pyridin-2-yl]-5-methoxy-3-methylimidazo[1,2-a]pyridine-7-carboxamide]
15 | 208 | COc1cc(C(=O)N2CCC[C@@H](N)C2)cc2nc(-c3cc4ccc([C@@H](C)NC(=O)C56CC(C#N)(C5)C6)nc4n3CC3CC3)c(C3CC3)n12 [Example 139, ~{N}-[(1~{R})-1-[2-[7-[(3~{R})-3-aminopiperidine-1-carbonyl]-3-cyclopropyl-5-methoxyimidazo [1,2-a]pyridin-2-yl]-1-(cyclopropylmethyl)pyrrolo [2,3-b]pyridin-6-yl]ethyl]-3-cyanobicyclo[1.1.1]pentane-1-carboxamide]
16 | 41 | COc1cc(C(=O)N2[C@H]3CC[C@@H]2[C@H](N)C3)cc2nc(-c3cc4ccc([C@@H](C)NC(=O)C5CC56CC6)nc4n3CC3CC3)c(C)n12 (stereo partly shown) [Example 69, ~{N}-[(1~{R})-1-[2-[7-[(1~{R},2~{R},4~{S})-2-amino-7-azabicyclo [2.2.1]heptane-7-carbonyl]-5-methoxy-3-methylimidazo [1,2-a]pyridin-2-yl]-1-(cyclopropylmethyl)pyrrolo[2,3-b]pyridin-6-yl]ethyl]spiro[2.2] pentane-2-carboxamide]
17 | 35.4 | COc1cc(C(=O)N2[C@H]3CC[C@@H]2[C@H](N)C3)cc2nc(-c3cc4ccc([C@@H](C)NC(=O)N5CCOC[C@@H]5C(F)(F)F)nc4n3CC3CC3)c(C)n12 [Example 199, (3~{R})-~{N}-[(1~{R})-1-[2-[7-[(1~{R}, 2~{R},4~{S})-2-amino-7-azabicyclo[2.2.1]heptane-7-carbonyl]-5-methoxy-3-methylimidazo [1,2-a]pyridin-2-yl]-1-(cyclopropylmethyl)pyrrolo [2,3-b]pyridin-6-yl]ethyl]-3-(trifluoromethyl)morpholine-4-carboxamide]
18 | 145 | COc1cc(C(=O)N2[C@H]3CC[C@@H]2[C@H](N)C3)cc2nc(-c3cc4ccc(C(O)C(F)(F)F)nc4n3CC3CC3)c(C)n12 (stereo partly shown) [Example 569, [(1~{R},2~{R},4~{S})-2-amino-7-azabicyclo [2.2.1]heptan-7-yl]-[2-[1-(cyclopropylmethyl)-6-(2,2,2-trifluoro-1-hydroxyethyl)pyrrolo [2,3-b]pyridin-2-yl]-5-methoxy-3-methylimidazo[1,2-a]pyridin-7-yl]methanone]
19 | 144 | COc1cc(C(=O)N2CCC[C@@H](N)C2)cc2nc(-c3cc4ccc([C@@H](C)N5CCOC5=O)nc4n3CC3CC3)c(C)n12 [Example 278, 3-[(1~{R})-1-[2-[7-[(3~{R})-3-aminopiperidine-1-carbonyl]-5-methoxy-3-methylimidazo [1,2-a]pyridin-2-yl]-1-(cyclopropylmethyl)pyrrolo [2,3-b]pyridin-6-yl]ethyl]-1,3-oxazolidin-2-one]
